pIC50: −log10 of the molar value. Read-outs that look alike come from different tables or passages of the source.
Legend:
His6-TEV-PPARγ-(234-505) = biological target: T1, His6-TEV-PPARγ-(234-505) (Homo sapiens, UniProt P37231); experiment: TR-FRET Assay to Measure Co-R Peptide Recruitment to PPARγ; format: biochemical; conditions: Co-R peptide (SMRT-ID2) recruitment; top final concentration 20 μM; read-out: TR-FRET i-Ag; AC50
T1 construct: The His6-TEV-PPARγ-(234-505) protein for assay was expressed and purified; TEV cleavage site (N); made in house
T1 sequence (P37231 234-505): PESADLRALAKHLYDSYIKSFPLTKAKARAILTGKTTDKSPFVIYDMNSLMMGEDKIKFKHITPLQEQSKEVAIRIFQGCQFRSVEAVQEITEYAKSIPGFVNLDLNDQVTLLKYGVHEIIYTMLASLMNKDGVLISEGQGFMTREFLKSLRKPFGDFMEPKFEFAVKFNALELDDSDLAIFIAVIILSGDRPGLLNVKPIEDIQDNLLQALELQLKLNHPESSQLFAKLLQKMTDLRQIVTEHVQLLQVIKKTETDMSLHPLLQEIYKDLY
Summary of the method: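 Corepressor recruitment is measured by adding terbium-labeled anti-His antibody and FITC SMRT-ID2 peptide, at 5 and 200 nM final, after a 20-minute room-temperature protein–compound incubation. After one further hour, signal is converted to percent response between DMSO and 500 nM T0070907 wells.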

UM-UC-9 engineered cells = experiment: Cell proliferation / short-term viability assay, CellTiter-Glo 144 h; format: cell-based, human; conditions: read-out: CTGlo 144 h UMUC9.5, G150
Summary of the method: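 Viability read by CellTiter-Glo 2.0 luminescence at day 7 versus DMSO-vehicle wells and a T0 plate measured on day 0. Cells: UM-UC-9 engineered assay-ready stocks, 500 cells/well in high-glucose DMEM with 10% FBS, 37° C, 5% CO2.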

Compound | AC50 (His6-TEV-PPARγ-(234-505)) [nM] | pIC50 (UM-UC-9 engineered cells; Homo sapiens, UM-UC-9, 144 h) | pIC50 (UM-UC-9 engineered cells)
COc1cc(-c2cc(C(=O)N3CCC(NC(=O)C4CCC(O)(C(F)(F)F)CC4)CC34CC4)n[nH]2)c(F)cn1 (single isomer, unassigned) [Example 347-C] | 5080 |  | < 5.00
CO[C@]1(C(F)(F)F)CC[C@@H](NC(=O)[C@@H]2CCN(C(=O)c3cc(-c4cc(C)ncn4)[nH]n3)C3(CC3)C2)CC1 (single isomer, unassigned) [Example 309-C] | 720 | 5.21 | 
COc1cc(-c2cc(C(=O)N3CCC(C(=O)NC4CCN(c5ccc(C#N)cn5)C4)CC34CC4)n[nH]2)c(F)cn1 (mixture of isomers) [Example 489, (S)—N—((R)-1-(5-cyanopyridin-2-yl)pyrrolidin-3-yl)-4-(5-(5-fluoro-2-methoxypyridin-4-yl)-1H-pyrazole-3-carbonyl)-4-azaspiro[2.5]octane-7-carboxamide and (S)—N—((S)-1-(5-cyanopyridin-2-yl)pyrrolidin-3-yl)-4-(5-(5-fluoro-2-methoxypyridin-4-yl)-1H-pyrazole-3-carbonyl)-4-azaspiro[2.5]octane-7-carboxamide] | 0.7 |  | 8.26
COc1cc(-c2cc(C(=O)N3CC[C@H](C(=O)Nc4cnn5ccc(C)nc45)CC34CC4)n[nH]2)c(F)cn1 [Example 381, (S)-4-(5-(5-fluoro-2-methoxypyridin-4-yl)-1H-pyrazole-3-carbonyl)-N-(5-methylpyrazolo[1,5-a]pyrimidin-3-yl)-4-azaspiro[2.5]octane-7-carboxamide] | 12.3 | 8.24 | 
CCO[C@]1(C(F)(F)F)CC[C@@H](NC(=O)[C@H]2CCN(C(=O)c3cc(-c4cc(C)ncn4)[nH]n3)C3(CC3)C2)CC1 (single isomer, unassigned) [Example 308-C] | 2 | 8.23 | 
CO[C@]1(C(F)(F)F)CC[C@H](NC(=O)[C@H]2CCN(C(=O)c3cc(-c4cc(C)ncn4)[nH]n3)C3(CC3)C2)CC1 (single isomer, unassigned) [Example 309-B] | 49.5 | 6.52 | 
COc1cc(-c2cc(C(=O)N3[C@@H]4CC[C@H]3C[C@H](C(=O)N[C@H]3CC[C@@](O)(C(F)(F)F)CC3)C4)n[nH]2)c(F)cn1 (single isomer, unassigned) [Example 170-A] | 4.7 | 7.93 | 
CO[C@]1(C(F)(F)F)CC[C@@H](NC(=O)[C@H]2CCN(C(=O)c3cc(-c4cc(C)ncc4F)[nH]n3)C3(CC3)C2)CC1 (single isomer, unassigned) [Example 293-C] | 2.8 | 8.80 | 
(S)-1-(5-(5-fluoro-2-methoxypyridin-4-yl)-1H-pyrazole-3-carbonyl)-N-((1r,4S)-4-hydroxy-4-(trifluoromethyl)cyclohexyl)-2,2-dimethylpiperidine-4-carboxamide and (R)-1-(5-(5-fluoro-2-methoxypyridin-4-yl)-1H-pyrazole-3-carbonyl)-N-((1r,4R)-4-hydroxy-4-(trifluoromethyl)cyclohexyl)-2,2-dimethylpiperidine-4-carboxamide [Example 407] | 30.3 |  | 7.64
COc1cc(-c2cc(C(=O)N3CCC(C(=O)NC4CCN(C5COC56CCC6)C4)CC34CC4)n[nH]2)c(F)cn1 (mixture of isomers) [Example 464] | 9.3 |  | 7.44
COc1cc(-c2cc(C(=O)N3CCC(C(=O)NC4CCN(C5COC5)C4)CC34CC4)n[nH]2)c(F)cn1 (mixture of isomers) [Example 396, (S)-4-(5-(5-fluoro-2-methoxypyridin-4-yl)-1H-pyrazole-3-carbonyl)-N—((R)-1-(oxetan-3-yl)pyrrolidin-3-yl)-4-azaspiro[2.5]octane-7-carboxamide and (S)-4-(5-(5-fluoro-2-methoxypyridin-4-yl)-1H-pyrazole-3-carbonyl)-N—((S)-1-(oxetan-3-yl)pyrrolidin-3-yl)-4-azaspiro[2.5]octane-7-carboxamide] | 97.7 |  | 6.53
(S)-4-(5-(5-fluoro-2-methoxypyridin-4-yl)-1H-pyrazole-3-carbonyl)-N—((S)-1-(oxetan-3-yl)piperidin-3-yl)-4-azaspiro[2.5]octane-7-carboxamide and (S)-4-(5-(5-fluoro-2-methoxypyridin-4-yl)-1H-pyrazole-3-carbonyl)-N—((R)-1-(oxetan-3-yl)piperidin-3-yl)-4-azaspiro[2.5]octane-7-carboxamide [Example 421] | 182 |  | 6.44

Continued, in another order:

AC50 (His6-TEV-PPARγ-(234-505)) [nM] | Compound | pIC50 (UM-UC-9 engineered cells; Homo sapiens, UM-UC-9, 144 h) | pIC50 (UM-UC-9 engineered cells)
708 | COc1cc(-c2cc(C(=O)N3CCC(C(=O)NC4C(=O)N(C)Cc5ccccc54)CC3)n[nH]2)c(Cl)cn1 (racemic) [Example 240, 1-(5-(5-chloro-2-methoxypyridin-4-yl)-1H-pyrazole-3-carbonyl)-N-(2-methyl-3-oxo-1,2,3,4-tetrahydroisoquinolin-4-yl)piperidine-4-carboxamide] | 5.22 | 
565 | COc1cc(-c2cc(C(=O)N3CCC(C(=O)NC4COC(C)C4)CC3)n[nH]2)c(Cl)cn1 (mixture of isomers) [Example 247, 1-(5-(5-chloro-2-methoxypyridin-4-yl)-1H-pyrazole-3-carbonyl)-N-(5-methyltetrahydrofuran-3-yl)piperidine-4-carboxamide] | 5.65 | 
17.2 | COc1cc(-c2cc(C(=O)N3CC[C@H](C(=O)NCC4CCNCC4(F)F)CC34CC4)n[nH]2)c(F)cn1 (single isomer, unassigned) [Example 511-A] |  | 7.20
61.1 | COc1cc(-c2cc(C(=O)N3CC[C@H](C(=O)NC4CN(C5CCOC5)C4)CC34CC4)n[nH]2)c(F)cn1 (single isomer, unassigned) [Example 433-B] |  | 6.60
5.3 | COc1cc(-c2cc(C(=O)N3CC[C@H](C(=O)N[C@H]4CC[C@@](OCCN)(C(F)(F)F)CC4)CC34CC4)n[nH]2)c(F)cn1 [Example 350, (S)—N-((1r,4S)-4-(2-aminoethoxy)-4-(trifluoromethyl)cyclohexyl)-4-(5-(5-fluoro-2-methoxypyridin-4-yl)-1H-pyrazole-3-carbonyl)-4-azaspiro[2.5]octane-7-carboxamide] | 6.75 | 
7.6 | COc1cc(-c2cc(C(=O)N3CC[C@H](C(=O)NC4CCN(C5COC56CCC6)C4)CC34CC4)n[nH]2)c(F)cn1 (single isomer, unassigned) [Example 464-D] | 7.60 | 
227 | COc1cc(-c2cc(C(=O)N3CCC(C(=O)NCc4ccc(Cl)cn4)CC3)n[nH]2)c(Cl)cn1 [Example 120, 1-(5-(5-chloro-2-methoxypyridin-4-yl)-1H-pyrazole-3-carbonyl)-N-((5-chloropyridin-2-yl)methyl)piperidine-4-carboxamide] | 6.12 | 
917 | COc1cc(-c2cc(C(=O)N3CC[C@H](C(=O)NC4CCN(CCF)C(C)(C)C4)CC34CC4)n[nH]2)c(F)cn1 (single isomer, unassigned) [Example 425-B] |  | < 5.00
36.4 | COc1cc(-c2cc(C(=O)N3CC[C@H](C(=O)NCc4cn5c(n4)COCC5)CC34CC4)n[nH]2)c(F)cn1 [Example 371, (S)—N-((5,6-dihydro-8H-imidazo[2,1-c][1,4]oxazin-2-yl)methyl)-4-(5-(5-fluoro-2-methoxypyridin-4-yl)-1H-pyrazole-3-carbonyl)-4-azaspiro[2.5]octane-7-carboxamide] | 6.47 | 
14.4 | COc1cc(-c2cc(C(=O)N3CC[C@H](C(=O)NCc4nc(C)ncc4Cl)CC34CC4)n[nH]2)c(F)cn1 [Example 387, (S)—N-((5-chloro-2-methylpyrimidin-4-yl)methyl)-4-(5-(5-fluoro-2-methoxypyridin-4-yl)-1H-pyrazole-3-carbonyl)-4-azaspiro[2,5]octane-7-carboxamide] | 7.65 | 
0.9 | COc1cc(-c2cc(C(=O)N3CC[C@H](C(=O)NC4CCN(c5ccc(C#N)nc5)C4)CC34CC4)n[nH]2)c(F)cn1 (stereo partly drawn) [Example 488, (7S)—N-(1-(6-cyanopyridin-3-yl)pyrrolidin-3-yl)-4-(5-(5-fluoro-2-methoxypyridin-4-yl)-1H-pyrazole-3-carbonyl)-4-azaspiro[2.5]octane-7-carboxamide] | 8.18 | 
42.8 | COc1cc(-c2cc(C(=O)N3CCC(C(=O)NCc4ccc5cc[nH]c5n4)CC3)n[nH]2)c(Cl)cn1 [Example 226, N-((1H-pyrrolo[2,3-b]pyridin-6-yl)methyl)-1-(5-(5-chloro-2-methoxypyridin-4-yl)-1H-pyrazole-3-carbonyl)piperidine-4-carboxamide] | 6.37 | 
56.7 | COc1cc(-c2cc(C(=O)N3CCC(C(=O)NC4CCC(O)(C(F)(F)F)CC4)CC3C(F)(F)F)n[nH]2)c(F)cn1 (single isomer, unassigned) [Example 367-A] |  | 6.79
8.2 | COc1cc(-c2cc(C(=O)N3CC[C@H](C(=O)NC4CCN(c5cnc(C)nc5)C4)CC34CC4)n[nH]2)c(F)cn1 (single isomer, unassigned) [Example 453-B] |  | 6.40

— patent US12606541B2, “PPARg modulators and methods of use” (Eisai R&D Management Co., Ltd., priority 2020, dated 2026)
